# Measurements taken from US12629363B2, “Prophylaxis and treatment of angioedema” (PHARVARIS GMBH, priority 2020, dated 2026).
# What was measured:
# [1] = target: T1, rat B2 receptor (Rattus norvegicus, UniProt P25023); assay: Antagonist potency in cells expressing rat B2 receptor; type: cell-based; details: rat B2 receptor
# T1 construct: expressed in transfected cells
# T1 sequence (P25023 1-396): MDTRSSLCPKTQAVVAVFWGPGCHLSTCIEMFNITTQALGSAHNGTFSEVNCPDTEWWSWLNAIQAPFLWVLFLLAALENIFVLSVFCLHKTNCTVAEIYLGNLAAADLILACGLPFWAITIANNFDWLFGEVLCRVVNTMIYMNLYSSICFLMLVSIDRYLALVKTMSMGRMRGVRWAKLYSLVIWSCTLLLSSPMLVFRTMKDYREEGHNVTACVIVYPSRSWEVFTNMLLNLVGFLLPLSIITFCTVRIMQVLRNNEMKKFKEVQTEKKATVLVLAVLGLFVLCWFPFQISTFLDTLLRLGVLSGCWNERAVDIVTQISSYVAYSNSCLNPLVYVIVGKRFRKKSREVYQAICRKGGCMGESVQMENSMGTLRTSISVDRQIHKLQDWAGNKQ
# From the text: (§1) The bradykinin B2 receptor is well known for its species selective pharmacology (Paquet et al., Br. J. Pharmacol. (126), 1083-1090, 1999 (DOI: 10.1038/sj.bjp.0702403); Burgess et al., Br. J. Pharmacol. (129), 77-86, 2000 (DOI: 10.1038/sj.bjp.0703012)). […] Pharmacol. 11:916; DOI: 10.3389/fphar.2020.00916.
# [2] = target: T2, BK B2 receptor (Homo sapiens, UniProt P30411); details: cited from earlier work
# T2 sequence (P30411 1-391): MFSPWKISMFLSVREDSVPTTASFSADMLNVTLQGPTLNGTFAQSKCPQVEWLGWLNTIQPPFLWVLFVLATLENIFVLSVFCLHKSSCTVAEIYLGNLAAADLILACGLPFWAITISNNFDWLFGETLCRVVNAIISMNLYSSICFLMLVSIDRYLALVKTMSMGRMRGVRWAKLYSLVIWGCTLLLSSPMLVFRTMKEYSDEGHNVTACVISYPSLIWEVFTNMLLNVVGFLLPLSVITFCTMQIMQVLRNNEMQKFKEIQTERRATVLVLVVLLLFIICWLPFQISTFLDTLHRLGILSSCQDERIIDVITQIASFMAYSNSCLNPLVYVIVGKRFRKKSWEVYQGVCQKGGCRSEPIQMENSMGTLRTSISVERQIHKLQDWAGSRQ
# [3] = target: T3, mouse B2 receptor (Mus musculus, UniProt P32299); assay: Antagonist potency in cells expressing mouse B2 receptor; type: cell-based; details: mouse B2 receptor
# T3 construct: expressed in transfected cells
# T3 sequence (P32299 1-392): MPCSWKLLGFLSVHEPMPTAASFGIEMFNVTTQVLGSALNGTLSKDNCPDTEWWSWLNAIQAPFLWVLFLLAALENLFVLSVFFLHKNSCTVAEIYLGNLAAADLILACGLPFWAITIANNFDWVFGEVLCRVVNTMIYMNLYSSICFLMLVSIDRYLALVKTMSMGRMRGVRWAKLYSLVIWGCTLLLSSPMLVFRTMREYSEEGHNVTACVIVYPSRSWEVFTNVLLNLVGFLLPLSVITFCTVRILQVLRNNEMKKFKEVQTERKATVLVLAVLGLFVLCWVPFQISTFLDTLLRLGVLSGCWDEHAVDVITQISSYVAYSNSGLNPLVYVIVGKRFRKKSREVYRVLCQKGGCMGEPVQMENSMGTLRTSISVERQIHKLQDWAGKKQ
# From the text: as §1
# [4] = target: T4, cynomolgus monkey B2 receptor (Macaca fascicularis, UniProt A0A7N9CWN6); assay: Antagonist potency in cells expressing cynomolgus monkey B2 receptor; type: cell-based; details: read-out: Kb value to antagonize BK activation
# T4 sequence (A0A7N9CWN6 1-391): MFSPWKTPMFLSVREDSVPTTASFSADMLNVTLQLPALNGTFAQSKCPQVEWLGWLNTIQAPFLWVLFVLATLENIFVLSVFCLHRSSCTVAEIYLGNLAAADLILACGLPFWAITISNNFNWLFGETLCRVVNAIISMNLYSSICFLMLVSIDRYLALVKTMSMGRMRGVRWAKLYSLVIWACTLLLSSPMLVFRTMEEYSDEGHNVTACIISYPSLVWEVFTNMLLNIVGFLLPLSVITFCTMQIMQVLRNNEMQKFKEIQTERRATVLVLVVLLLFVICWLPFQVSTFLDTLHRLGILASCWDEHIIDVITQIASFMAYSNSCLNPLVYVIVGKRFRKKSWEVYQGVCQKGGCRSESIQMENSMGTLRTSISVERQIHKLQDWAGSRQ
# From the text: as §1
# [5] = in vivo; cited from earlier work
# [6] = tested on: acute HAE attacks; details: cited from earlier work
# [7] = target: T5, dog B2 receptor (Canis lupus familiaris, UniProt Q9BDQ4); assay: Antagonist potency in cells expressing dog B2 receptor; type: cell-based; details: dog B2 receptor
# T5 construct: expressed in transfected cells
# T5 sequence (Q9BDQ4 1-392): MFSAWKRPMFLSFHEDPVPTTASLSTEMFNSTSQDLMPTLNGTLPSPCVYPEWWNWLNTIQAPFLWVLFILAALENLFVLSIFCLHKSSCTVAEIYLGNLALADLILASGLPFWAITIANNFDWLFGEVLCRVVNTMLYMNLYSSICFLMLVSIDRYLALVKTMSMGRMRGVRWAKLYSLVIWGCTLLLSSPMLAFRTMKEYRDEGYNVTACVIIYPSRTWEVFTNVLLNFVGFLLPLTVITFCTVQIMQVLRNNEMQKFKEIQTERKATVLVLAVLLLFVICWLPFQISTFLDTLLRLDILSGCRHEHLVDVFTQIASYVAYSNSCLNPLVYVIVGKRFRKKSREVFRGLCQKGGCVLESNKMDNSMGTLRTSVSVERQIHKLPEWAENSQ
# From the text: as §1
# [8] = Drug-drug interaction trial with itraconazole, PK (Example 5)
# Method: Thirteen healthy subjects were enrolled and completed the study.
# On Days 4 to 8, subjects received once daily oral doses of 200 mg itraconazole one hour before start of a standard meal.
# Trough plasma concentrations of itraconazole were determined by taking predose plasma samples on Days 4-7, to document exposure to itraconazole.
"mean predose plasma concentration (Ctrough) ([8]; Day 4, itraconazole 200 mg dosing)","mean predose plasma concentration (Ctrough) ([8]; Day 7, itraconazole 200 mg dosing)",Compound,Kb [1],"Time plasma level above EC85 at a 75% confidence level ([2]; in vivo, sc)","Time plasma level above EC85 at a 75% confidence level, DBP ([2]; in vivo, sc)","Time plasma level above EC85 at a 75% confidence level, MAP ([2]; in vivo, sc)",intrinsic PD potency at the K B2 receptor ([2]; in vivo),time plasma concentration above EC85 (85% effective) at 50% probability ([2]; in vivo),"EC85 (published, BK challenge) ([2]; plasma concentration, FDA Clinical Pharmacology Review Firazyr)",Kb [3],Kb [4],half-life [5],"time after which therapeutic response to an acute HAE attack wanes ([6]; human, in vivo)","onset of relief in acute HAE attacks ([6]; placebo 19.8 h, Lumry et al. 2011)",Kb [7]
,,NC(N)=NCCC[C@@H](N)C(=O)N[C@@H](CCCN=C(N)N)C(=O)N1CCC[C@H]1C(=O)N1C[C@H](O)C[C@H]1C(=O)NCC(=O)N[C@@H](Cc1cccs1)C(=O)N[C@@H](CO)C(=O)N1Cc2ccccc2C[C@@H]1C(=O)N1[C@H](C(=O)N[C@@H](CCCN=C(N)N)C(=O)O)C[C@@H]2CCCC[C@@H]21 [icatibant],5.6 nM,5.5 h,5.5 h,5.5 h,8.9 nM,5.5 h,0.0538 µg/mL,4.4 nM,4.06 nM,1.4 h,approximately 6 hours,2.0 h,30.7 nM
386 ± 82.2 ng/mL,597 ± 178 ng/mL,CCC(C)n1ncn(-c2ccc(N3CCN(c4ccc(OCC5COC(Cn6cncn6)(c6ccc(Cl)cc6Cl)O5)cc4)CC3)cc2)c1=O (stereo not drawn) [itraconazole],,,,,,,,,,,,,
